Patent US4806680A, “3-halovinylglycine antibacterial agents” (Merck & Co., Inc., priority 1987, dated 1989)
In brackets after ≈: the same amount, converted by molar mass. Where a name gives a salt, the structure may show the parent alone.

What was measured:
[1] = tested on: S. aureus; assay: Agar dilution assay (M.I.C.); type: cell-based, Staphylococcus aureus; settings: for MIC: Staphylococcus aureus, read-out: minimum inhibitory concentration (M.I.C.); for antibacterial activity (in words): vs S. aureus
Protocol: (§1) Representative 3-halovinylglycines and amino acid conjugates were tested for antibacterial activity by an agar dilution assay [being an modification of the antagonist-free-medium assay described in: Antimicrobial Agents and Chemotherapy, May 1979, pp 677-683 and pp 684-695]. Compounds assayed include (L) and (D)-3-chlorovinylglycine (HCL salts), (L) norvalyl-(L), (D), and (DL)-3 chlorovinylglycine (CF3 COOH salts), and (L) norvalyl-(L), (D), and (DL)-3 fluorovinylglycine (CF3 COOH) salts.

[2] = tested on: E. coli DC2; assay: Agar dilution assay (M.I.C.); type: cell-based; settings: Escherichia coli, read-out: minimum inhibitory concentration (M.I.C.)
Protocol: as §1

[3] = tested on: cystathionine synthetase; settings: synthesis of cystathionine from serine; cited from earlier work
[4] = tested on: E. Coli alanine racemase; assay: Inhibition of E. coli alanine racemase; type: biochemical
[5] = tested on: E. coli; assay: Agar dilution assay (M.I.C.); type: cell-based, Escherichia coli; settings: vs E. coli
Protocol: as §1

[6] = tested on: Strep. faecalis; assay: Agar dilution assay (M.I.C.); type: cell-based, Streptococcus faecalis; settings: vs Strep. faecalis
Protocol: as §1

[7] = tested on: K. pneumoniae; assay: Agar dilution assay (M.I.C.); type: cell-based, Klebsiella pneumoniae; settings: vs K. pneumoniae
Protocol: as §1

[8] = tested on: Sal. typhimurium; assay: Agar dilution assay (M.I.C.); type: cell-based; settings: Salmonella enterica, read-out: minimum inhibitory concentration (M.I.C.)
Protocol: as §1

[9] = tested on: E. coli TEM 2^+; assay: Agar dilution assay (M.I.C.); type: cell-based; settings: Escherichia coli, read-out: minimum inhibitory concentration (M.I.C.)
Protocol: as §1

[10] = tested on: eleven representative strains of pathogenic bacteria; assay: Agar dilution assay, panel of eleven strains; type: cell-based; settings: for number of test species against which activity is shown: M.I.C. equal to or less than 256 indicates activity, 11 test species
Protocol: as §1
The antibacterial activity of the representative structure I compounds versus eleven representative strains of pathogenic bacteria is shown in the following Table.

With C=C(Cl)C(NC(=O)[C@@H](N)CCC)C(=O)O (mixture of isomers) [(L)-NVA--(DL)-Cl--vinylgly, L-norvalyl-D,L-3-chlorovinylglycine] as the molecule, how does the MIC [1] read?
The MIC was no more than 250 µg/mL.

What about the MIC [2] of the same molecule?
The MIC was 4000 µg/mL.

For C=C(Cl)C(N)C(=O)O (racemic) [racemic 3-chlorovinylglycine, 2-amino-3-chloro-3-butenoic acid], which “inactivation of cystathionine synthetase (in words)” value [3] is on record?
Its value is “not being an inactivator”.

Which results are given for C=C(Cl)[C@@H](N)C(=O)O [(D)Cl vinylgly, (D)-3-Chlorovinylglycine hydrochloride]?
inhibition of alanine racemase (in words) [4]: potent irreversible inhibitor; antibacterial activity (in words) [5]: exhibits antibacterial activity; antibacterial activity (in words) [1]: exhibits antibacterial activity; antibacterial activity (in words) [6]: exhibits antibacterial activity; antibacterial activity (in words) [7]: exhibits antibacterial activity

Which MIC [2] does the source give for C=C(Cl)[C@@H](NC(=O)[C@@H](N)CCC)C(=O)O [(L)-NVA--(D)-Cl--vinylgly, L-norvalyl-D-3-chlorovinylglycine] here?
The MIC was 32000 µg/mL (≈ 136 mM).

Which MIC [1] does the source give for C=C(F)C(NC(=O)[C@@H](N)CCC)C(=O)O (stereo partly drawn) [(L)-NVA--(DL)-F--vinylgly, (L,DL)-Norvalyl-3-fluorovinylglycine trifluoracetate] here?
Its MIC is 1000 µg/mL (≈ 4.58 mM).

What about the MIC [2] of the same molecule?
The MIC was 4000 µg/mL (≈ 18.3 mM).

What does the source list for C=C(Cl)[C@H](NC(=O)[C@@H](N)CCC)C(=O)O [(L)-NVA--(L)-Cl--vinylgly, (L,L)-Norvalyl 3-chlorovinylglycine trifluoroacetate]?
MIC [2]: 1000 µg/mL; MIC [8]: 64000 µg/mL; MIC [9]: 8000 µg/mL; number of test species against which activity is shown [10]: 8 of 11

Which MIC [2] does the source give for C=C(F)[C@H](NC(=O)[C@@H](N)CCC)C(=O)O [(L)-NVA--(L)-F--vinylgly, (L,L)-Norvalyl-3-fluorovinylglycine trifluoroacetate] here?
Its MIC is 2000 µg/mL.

What about the MIC [9] of the same molecule?
The MIC was 16000 µg/mL.

And the “relative activity in the antibacterial agar dilution assay” value ([10]; (L,L) versus (L,D) diastereomer)?
The value was “more active”.

What about the “number of test species against which activity is shown” value [10] of the same molecule?
Its value is 9 of 11.

Which “inhibition of alanine racemase (in words)” value [4] does the source give for C=C(Cl)[C@H](N)C(=O)O [(L)Cl vinylgly, L-3-chlorovinylglycine] here?
Its value is “inhibits”.

What about the “antibacterial activity (in words)” value [1] of the same molecule?
Its value is “exhibits antibacterial activity”.

And the “antibacterial activity (in words)” value [6]?
Its value is “exhibits antibacterial activity”.

And the “antibacterial activity (in words)” value [7]?
The value was “exhibits antibacterial activity”.
